# Where two headings read alike, the source gives them in different places.
# What was measured:
# [1] = test system: MiaPaCa-2 cells; assay: MTT colorimetric cytotoxicity assay on pancreatic chemoresistant cancer MiaPaCa-2 cells; settings: 48 hours incubation, tested concentration not stated
# [2] = test system: MiaPaCa-2 cells
# Protocol: Pancreatic chemoresitant cancer MiaPaCa-2 cells are cultured in DMEM medium (Gibco) supplemented with 10% fetal bovine serum (FBS). Cells are seeded at a densitiy of 30,000 cells per well in 48 well View Plate (Packard) in 250 µL of medium containing the same components as described above. Cells are allowed to attach overnight (O/N) and then culture medium is removed and replace with fresh media alone as control or containing different concentrations of each of tested compounds. Plates are further incubated at 37 °C and 5% CO2 for 48 hours. The number of viable cells remaining after the appropriate treatment is determined by (3-(4,5-dimethylthiazol-2-yl)-2,5-diphenyltetrazolium bromide, MTT) colorimetric assay.
Compound,Cytotoxicity (en %) [1],Cytotoxicity (en %) [2]
"CCCCCCCCCCCCOc1cc2nc3ccccc3nc2cc1OCCCCCCCCCCCC [compound 3, 2,3-didodecanoxyphenazine]",X>50%,
"CCCCCCCCCCCCOc1cc2nc3cc(N)c(N)cc3nc2cc1OCCCCCCCCCCCC [compound 2, 2,3-didodecanoxy-7,8-diaminophenazine]",X>50%,
"CCCCCCCCCCCCOc1cc2nc3ccc(C(=O)NCCN(C)C)cc3nc2cc1OCCCCCCCCCCCC [compound 4, 2,3-didodecanoxy-7-dimethylaminoethylcarbamoylphenazine]",X > 50%,
"CCCCCCCCCCCCCCCC(=O)Oc1cc2nc3ccccc3nc2cc1OC(=O)CCCCCCCCCCCCCCC [compound 7, 2,3-diopalmitoylphenazine]",,50 >X> 40
"2,3-dihydroxy-7,8-diamino(Boc)phenazine [compound 13]",,30 >X> 25
2-hydroxy-3-ethoxy-7-ethylcarboxyphenazine [compound 5],,X>50%
"2,3-diethoxy-7-ethylcarboxyphenazine [compound 14]",,20 > X > 10
"CCCCCCCCCCCCOc1cc2nc3ccc(C(=O)O)cc3nc2cc1OCCCCCCCCCCCC [compound 1, 2,3-didodecanoxy-7-carboxyphenazine]",X>50%,

# Source: patent publication EP2368885A1, “Derivatives of phenazine useful to treat cancer” (Université de la Méditerranée (Aix-Marseille II), priority 2010, dated 2011)
